ChEMBL document CHEMBL3994629, “Synthesis and biological evaluation of a water-soluble phosphate prodrug salt and structural analogues of KGP94, a lead inhibitor of cathepsin L” (Bioorg Med Chem Lett, 2017)
pIC50, pKi: −log10 of the molar value. Calls of active or inactive are those of the source. The calls are words filed in the database; no cut-off is given here.

How the values were obtained:
Procathepsin L [1] = target: T1, Procathepsin L (Homo sapiens, UniProt P07711); assay: Inhibition of human liver cathepsin-L at 10 uM using Z-FR-AMC as substrate preincubated for 5 mins followed by substrate addition measured at 15 sec interval for 5 mins in presence of 0.01% Brij35 by fluorometric method relative to control
Target sequence in this assay (P07711 114-333 limits assumed): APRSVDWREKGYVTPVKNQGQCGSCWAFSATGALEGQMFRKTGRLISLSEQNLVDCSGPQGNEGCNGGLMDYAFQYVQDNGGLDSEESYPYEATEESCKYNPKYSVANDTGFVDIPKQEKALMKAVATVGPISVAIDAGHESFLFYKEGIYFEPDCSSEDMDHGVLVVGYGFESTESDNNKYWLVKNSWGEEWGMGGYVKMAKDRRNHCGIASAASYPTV

Procathepsin L [2] = target: T1, Procathepsin L; assay: Inhibition of human liver cathepsin-L using Z-FR-AMC as substrate preincubated for 5 mins followed by substrate addition measured at 15 sec interval for 5 mins by fluorometric method
Target sequence in this assay (P07711 whole entry): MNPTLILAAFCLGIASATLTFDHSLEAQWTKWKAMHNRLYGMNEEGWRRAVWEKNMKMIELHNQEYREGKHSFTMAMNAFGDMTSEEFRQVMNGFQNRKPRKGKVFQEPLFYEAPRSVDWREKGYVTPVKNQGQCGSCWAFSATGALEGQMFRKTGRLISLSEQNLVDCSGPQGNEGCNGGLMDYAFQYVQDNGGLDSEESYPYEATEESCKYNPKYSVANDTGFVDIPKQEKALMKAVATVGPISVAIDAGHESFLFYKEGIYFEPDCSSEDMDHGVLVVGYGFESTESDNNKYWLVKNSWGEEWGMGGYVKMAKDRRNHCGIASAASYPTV

Cathepsin B [3] = target: T2, Cathepsin B (Homo sapiens, UniProt P07858); assay: Inhibition of human liver cathepsin-B at 10 uM using Z-RR-AMC as substrate preincubated for 5 mins followed by substrate addition measured for 5 mins by fluorometric method relative to control
Cathepsin B [4] = target: T2, Cathepsin B; assay: Inhibition of human liver cathepsin-B using Z-RR-AMC as substrate preincubated for 5 mins followed by substrate addition measured for 5 mins by fluorometric method
Procathepsin L [5] = target: T1, Procathepsin L; assay: Inhibition of human liver cathepsin-L at 10 uM using Z-FR-AMC as substrate preincubated for 5 mins followed by substrate addition measured at 15 sec interval for 5 mins in presence of 0.1% Tween or 0.1% CHAPS by fluorometric method relative to control
Target sequence in this assay (P07711 114-333 limits assumed): as the sequence (P07711 114-333 limits assumed) above

Procathepsin L [6] = target: T1, Procathepsin L; assay: Covalent/reversible inhibition of human liver cathepsin-L using Z-FR-AMC as substrate preincubated for 5 mins followed by substrate addition measured at 15 sec interval for 5 mins by Morrison's equation analysis; details: read-out: Ki(app)
Target sequence in this assay (P07711 whole entry): as the sequence (P07711 whole entry) above

[7] = Retention time in pH 8.6 glycine buffer after 48 hrs at 37 degC by HPLC method
Caspase-3 (Homo sapiens) = target: T3, Caspase-3 (Homo sapiens) (UniProt P42574); assay: Inhibition of recombinant human caspase-3 at 1 uM using Ac-DMQD-AMC as substrate measured at 15 sec interval over 30 mins by fluorogenic assay relative to control
T3 sequence (whole entry): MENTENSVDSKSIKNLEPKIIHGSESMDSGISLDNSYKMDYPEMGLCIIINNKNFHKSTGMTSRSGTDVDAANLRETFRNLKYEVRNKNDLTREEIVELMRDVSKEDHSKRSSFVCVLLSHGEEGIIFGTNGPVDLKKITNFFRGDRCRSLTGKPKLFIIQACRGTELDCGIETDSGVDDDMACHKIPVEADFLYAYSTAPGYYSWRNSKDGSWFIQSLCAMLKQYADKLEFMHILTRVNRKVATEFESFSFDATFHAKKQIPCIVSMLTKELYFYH

[8] = target: Matrix metalloproteinase-9 (Homo sapiens) (UniProt P14780); assay: Inhibition of recombinant human MMP9 at 1 uM using NFF2 as substrate by fluorometric method relative to control
Matrix metalloproteinase-9 (Homo sapiens), sequence (P14780 whole entry): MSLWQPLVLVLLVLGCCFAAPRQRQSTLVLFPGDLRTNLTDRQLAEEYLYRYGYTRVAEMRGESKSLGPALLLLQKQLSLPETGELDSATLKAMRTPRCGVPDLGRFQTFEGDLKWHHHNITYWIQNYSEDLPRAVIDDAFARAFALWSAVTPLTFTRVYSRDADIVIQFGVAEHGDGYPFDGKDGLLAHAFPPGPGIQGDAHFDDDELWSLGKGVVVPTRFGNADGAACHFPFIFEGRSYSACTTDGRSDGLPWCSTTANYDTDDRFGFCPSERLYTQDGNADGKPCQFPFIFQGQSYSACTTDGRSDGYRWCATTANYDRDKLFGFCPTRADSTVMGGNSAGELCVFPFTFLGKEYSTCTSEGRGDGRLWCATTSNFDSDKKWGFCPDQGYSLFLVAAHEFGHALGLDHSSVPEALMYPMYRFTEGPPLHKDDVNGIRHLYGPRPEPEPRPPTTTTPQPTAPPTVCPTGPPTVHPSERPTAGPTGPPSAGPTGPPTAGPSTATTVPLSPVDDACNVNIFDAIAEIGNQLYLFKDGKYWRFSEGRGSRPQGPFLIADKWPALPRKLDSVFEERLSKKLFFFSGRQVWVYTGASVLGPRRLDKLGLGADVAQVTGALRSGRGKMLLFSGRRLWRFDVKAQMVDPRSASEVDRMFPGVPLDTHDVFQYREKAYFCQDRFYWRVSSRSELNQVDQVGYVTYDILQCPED

[9] = target: Matrix metalloproteinase-9 (Homo sapiens) (UniProt P14780); assay: Inhibition of recombinant human MMP9 at 10 uM using NFF2 as substrate by fluorometric method relative to control
[10] = Aqueous solubility of the compound in water at 2.02 mg by reversed phase column chromatography; type: physicochemical
MDA-MB-231 = assay: Anti-migratory activity against human MDA-MB-231 cells assessed as delay in wound closure at 15 uM after 42 hrs by scratch assay; type: functional, cell-based
Procathepsin L [11] = target: T1, Procathepsin L; assay: Time-dependent inhibition of human liver cathepsin-L up to 20 uM using Z-FR-AMC as substrate preincubated with enzyme followed by substrate addition by fluorometric method
Target sequence in this assay (P07711 114-333 limits assumed): as the sequence (P07711 114-333 limits assumed) above

Procathepsin L [12] = target: T1, Procathepsin L; assay: Time-dependent inhibition of human liver cathepsin-L assessed as association constant up to 20 uM using 10 uM Z-FR-AMC as substrate preincubated with enzyme followed by substrate addition by fluorometric method
Target sequence in this assay (P07711 114-333 limits assumed): as above

Procathepsin L [13] = target: T1, Procathepsin L; assay: Time-dependent inhibition of human liver cathepsin-L assessed as dissociation constant up to 20 uM using 10 uM Z-FR-AMC as substrate preincubated with enzyme followed by substrate addition by fluorometric method
Target sequence in this assay (P07711 114-333 limits assumed): as above

Procathepsin L [14] = target: T1, Procathepsin L; assay: Time-dependent inhibition of human liver cathepsin-L assessed as association constant up to 20 uM using 5 uM Z-FR-AMC as substrate preincubated with enzyme followed by substrate addition by fluorometric method
Target sequence in this assay (P07711 114-333 limits assumed): as above

[15] = Solubility in water; type: physicochemical; details: buffer
[16] = Aqueous solubility of the compound in water at 4 g by reversed phase column chromatography; type: physicochemical
[17] = Stability in pH 8.6 glycine buffer assessed as compound hydrolysis after 48 hrs at 37 degC in absence of alkaline phosphatase by HPLC method
[18] = Stability in water assessed as compound hydrolysis at 20 uM after 1 week at 4 degC by HPLC method; type: physicochemical; details: buffer, 168 h
[19] = Cytotoxicity against HUVEC assessed as growth inhibition after 48 hrs by SRB assay; type: cell-based; details: human, HUVEC cells
[20] = Prodrug activation in pH 8.6 glycine buffer assessed as KGP94 formation after 48 hrs at 37 degC in absence of alkaline phosphatase by HPLC method
[21] = Prodrug activation in water assessed as assessed as KGP94 formation at 20 uM after 1 week at 4 degC by HPLC method

## NC(=S)NN=C(c1cc(O)cc(Br)c1)c1cc(O)cc(Br)c1
Procathepsin L [1]
  inhibition: 40%
Procathepsin L [2]
  pIC50: < 5.00
Cathepsin B [3]
  inhibition: > 50%
Cathepsin B [4]
  pIC50: < 5.00

## NC(=S)N/N=C(\c1cccc(O)c1)c1cccc(Br)c1
Procathepsin L [1]
  inhibition: 88 to 91%
Procathepsin L [5]
  inhibition: Active
Procathepsin L [6]
  pKi: 8.43
[7]
  Retention time: 5.4 min
Caspase-3 (Homo sapiens)
  inhibition: 4.5%
[8]
  inhibition: 3%
[9]
  inhibition: 15%
[10]
  solubility: < 0.67 mg/mL
MDA-MB-231
  Activity: Active

## NC(=S)N/N=C(\c1cc(O)cc(O)c1)c1cc(Br)cc(Br)c1
Procathepsin L [1]
  inhibition: 44%
Procathepsin L [2]
  pIC50: < 5.00
Cathepsin B [3]
  inhibition: > 50%
Cathepsin B [4]
  pIC50: < 5.00

## NC(=S)N/N=C(\c1cc(O)cc(O)c1)c1cccc(Br)c1
Procathepsin L [1]
  inhibition: 23%
Procathepsin L [2]
  pIC50: ≤ 5.00
Cathepsin B [3]
  inhibition: > 50%
Cathepsin B [4]
  pIC50: < 5.00

## COc1cc(OC)cc(/C(=N\NC(N)=S)c2cc(Br)cc(Br)c2)c1
Procathepsin L [1]
  inhibition: 52%
Procathepsin L [2]
  pIC50: ≤ 5.00
Cathepsin B [3]
  inhibition: > 50%
Cathepsin B [4]
  pIC50: < 5.00

## COc1cc(OC)cc(/C(=N\NC(N)=S)c2cccc(Br)c2)c1
Procathepsin L [1]
  inhibition: 46%
Procathepsin L [2]
  pIC50: < 5.00
Cathepsin B [3]
  inhibition: > 50%
Cathepsin B [4]
  pIC50: < 5.00

## NC(=S)N/N=C(\c1cccc(O)c1)c1cc(Br)cc(Br)c1
Procathepsin L [1]
  inhibition: 94%
Procathepsin L [5]
  inhibition: Active
Procathepsin L [2]
  pIC50: 6.69
Procathepsin L [6]
  pKi: 8.08
Procathepsin L [11]
  TDI: Active
Cathepsin B [3]
  inhibition: > 50%
Cathepsin B [4]
  pIC50: < 5.00
MDA-MB-231
  Activity: Active
Procathepsin L [12]
  K: 1.5 ×10³ /M/s
Procathepsin L [13]
  K: 1 ×10⁻³ /s
Procathepsin L [14]
  K: 2 ×10³ /M/s

## NC(=S)N/N=C(/c1cccc(Br)c1)c1cccc(OP(=O)([O-])[O-])c1.[Na+].[Na+]
Procathepsin L [1]
  inhibition: 18%
Procathepsin L [5]
  inhibition: < 50%
Procathepsin L [2]
  pIC50: < 5.00
[15]
  solubility: Soluble
[16]
  solubility: > 400 mg/mL
[17]
  Drug degradation: 5.6%
[18]
  Stability: Stable
[7]
  Retention time: 1.6 min
Cathepsin B [3]
  inhibition: > 50%
[19]
  GI50 at 48 h: 20.2 µM
MDA-MB-231
  Activity: Active
[20]
  Drug metabolism: Metabolite detected
[21]
  Drug metabolism: Metabolite not detected
